# Measurements reported in patent publication US20260102359A1, “COMBINATION TREATMENT OF DERMAL AND TRANSDERMAL FIBROTIC DISEASES, DISORDERS AND ASSOCIATED PAIN AND INFLAMMATION” (ERESINA, LLC, priority 2022, published 2026).
# Structures can show the parent of a compound that is named as a salt.
# System: hDMFa myofibroblast cells
row,Structure (SMILES),Compound Myofibroblast Cytotoxicity Activity
1,"COc1cc2c(Oc3ccc4[nH]c(C)cc4c3F)ncnc2cc1OCCCN1CCCC1 [Cmpd 226, Cediranib (AZD217)]",++++
2,"CC1=C(C(=O)O)N2C(=O)[C@@H](NC(=O)[C@H](N)c3ccc(O)cc3)[C@H]2SC1 [Cmpd 227, Cefadroxil (hydrate)]",++
3,"Cc1nnc(SCC2=C(C(=O)O)N3C(=O)[C@@H](NC(=O)Cn4cnnn4)[C@H]3SC2)s1 [Cmpd 228, Cefazolin (sodium salt)]",+++
4,"CO/N=C(\C(=O)N[C@@H]1C(=O)N2C(C(=O)OCOC(=O)C(C)(C)C)=C(C)CS[C@H]12)c1csc(N)n1.Cl [Cmpd 230, Cefetamet pivoxil hydrochloride]",+++++
5,"O=C(O)C1=C(CSc2nnnn2CS(=O)(=O)O)CS[C@@H]2[C@H](NC(=O)[C@H](O)c3ccccc3)C(=O)N12 [Cmpd 232, Cefonicid (sodium salt)]",++++
6,"CO/N=C(\C(=O)N[C@@H]1C(=O)N2C(C(=O)O)=C(COC(C)=O)CS[C@H]12)c1csc(N)n1 [Cmpd 233, Cefotaxime (sodium salt)]",+++
7,"CO[C@@]1(NC(=O)Cc2cccs2)C(=O)N2C(C(=O)O)=C(COC(N)=O)CS[C@@H]21 [Cmpd 234, Cefoxitin (sodium salt)]",+++++
8,"CO/N=C(\C(=O)N[C@@H]1C(=O)N2C(C(=O)[O-])=C(CSC(=O)c3ccco3)CS[C@H]12)c1csc(N)n1.[Na+] [Cmpd 237, Ceftiofur sodium]",++
9,"CO/N=C(\C(=O)N[C@@H]1C(=O)N2C(C(=O)OC(C)OC(C)=O)=C(COC(N)=O)CS[C@H]12)c1ccco1 (stereo partly shown) [Cmpd 238, Cefuroxime axetil]",++
10,"O=C[C@H](O)[C@@H](O)[C@H](O[C@@H]1O[C@H](CO)[C@@H](O)[C@H](O)[C@H]1O)[C@H](O)CO [Cmpd 239, Cellobiose]",+++
11,"COc1ccc2cc1Oc1ccc(cc1)C[C@H]1c3c(cc4c(c3Oc3cc5c(cc3OC)CCN(C)[C@@H]5C2)OCO4)CCN1C [Cmpd 241, Cepharanthine]",++
12,"C[C@H](CCC(=O)O)[C@H]1CC[C@H]2[C@@H]3[C@H](O)C[C@@H]4C[C@H](O)CC[C@]4(C)[C@H]3CC[C@]12C [Cmpd 245, Chenodeoxycholic Acid]",+++
13,"CC(=O)O.CC(=O)O.NC(=N\CCCCCC/N=C(N)/N=C(\N)Nc1ccc(Cl)cc1)/N=C(\N)Nc1ccc(Cl)cc1 [Cmpd 247, Chlorhexidine diacetate]",+++++
14,"N=C(NCCCCCCNC(=N)NC(=N)Nc1ccc(Cl)cc1)NC(=N)Nc1ccc(Cl)cc1.O=C(O)[C@H](O)[C@@H](O)[C@H](O)[C@H](O)CO.O=C(O)[C@H](O)[C@@H](O)[C@H](O)[C@H](O)CO [Cmpd 248, Chlorhexidine digluconate]",+++
15,"[H]/N=C(\N/C(=N/[H])NCCCCCCNC(=N)NC(=N)Nc1ccc(Cl)cc1)Nc1ccc(Cl)cc1 [Cmpd 249, Chlorhexidine HCl]",+++++
16,"CN(C)CCN(Cc1ccc(Cl)cc1)c1ccccn1 [Cmpd 250, Chloropyramine hydrochloride]",++
17,"Oc1c(Cl)cc(Cl)c2cccnc12 [Cmpd 251, Chloroxine]",++++
18,"CN(C)CCCN1c2ccccc2Sc2ccc(Cl)cc21 [Cmpd 253, Chlorpromazine HCl]",+++
19,"CN(C)CC/C=C1/c2ccccc2Sc2ccc(Cl)cc21 [Cmpd 254, Chlorprothixene]",+++
20,"CN(C)[C@@H]1C(O)=C(C(N)=O)C(=O)[C@@]2(O)C(O)=C3C(=O)c4c(O)ccc(Cl)c4[C@@](C)(O)[C@H]3C[C@@H]12 [Cmpd 256, Chlortetracycline HCl]",++

row,Structure (SMILES),Compound Myofibroblast Cytotoxicity Activity
1,"C[N+](C)(C)CCO.O=C([O-])C(O)C(O)C(=O)O (stereo not shown) [Cmpd 257, Choline bitartrate]",+++
2,"Cc1cc(C2CCCCC2)n(O)c(=O)c1 [Cmpd 258, Ciclopirox]",++++
3,"Cc1cc(C2CCCCC2)n(O)c(=O)c1.NCCO [Cmpd 259, Ciclopirox ethanolamine]",+++
4,"CC1(C)C[C@@H]1C(=O)N/C(=C\CCCCSC[C@H](N)C(=O)O)C(=O)O [Cmpd 260, Cilastatin]",++++
5,"O=C(O)c1cc(-c2ccccc2)nc2ccccc12 [Cmpd 265, Cinchophen]",++
6,"O=C(O)C=Cc1ccccc1 [Cmpd 266, Cinnamic acid]",++
7,"O=C(O)c1cn(C2CC2)c2cc(N3CCNCC3)c(F)cc2c1=O [Cmpd 268, Ciprofloxacin (hydrochloride)]",++
8,"C[N+](C)(C)CCOP(=O)(O)OP(=O)([O-])OC[C@H]1O[C@@H](n2ccc(N)nc2=O)[C@H](O)[C@@H]1O [Cmpd 271, Citicoline (sodium salt)]",+++
9,"O=C(O)CC(O)(CC(=O)O)C(=O)O [Cmpd 273, Citric acid]",++++
10,"CC[C@H]1OC(=O)[C@H](C)[C@@H](O[C@H]2C[C@@](C)(OC)[C@@H](O)[C@H](C)O2)[C@H](C)[C@@H](O[C@@H]2O[C@H](C)C[C@H](N(C)C)[C@H]2O)[C@](C)(OC)C[C@@H](C)C(=O)[C@H](C)[C@@H](O)[C@]1(C)O [Cmpd 274, Clarithromycin]",+++
11,"Clc1ccc(Cn2c(CN3CCCC3)nc3ccccc32)cc1 [Cmpd 277, Clemizole hydrochloride]",++
12,"CC(C)(C)NCC(O)c1cc(Cl)c(N)c(Cl)c1 (stereo not shown) [Cmpd 278, Clenbuterol (hydrochloride)]",++
13,"CCCC(=O)OCOC(=O)C1=C(C)NC(C)=C(C(=O)OC)C1c1cccc(Cl)c1Cl (stereo not shown) [Cmpd 279, Clevidipine Butyrate]",++
14,"Oc1c(I)cc(Cl)c2cccnc12 [Cmpd 281, Clioquinol]",++
15,"O=P(O)(O)C(Cl)(Cl)P(=O)(O)O [Cmpd 282, Clodronate (sodium salt hydrate)]",+++
16,"CC(C)/N=c1\cc2n(-c3ccc(Cl)cc3)c3ccccc3nc-2cc1Nc1ccc(Cl)cc1 [Cmpd 283, Clofazimine]",++
17,"CCN(CC)CCOc1ccc(C(=C(Cl)c2ccccc2)c2ccccc2)cc1 [Cmpd 284, Clomiphene citrate]",+++
18,"CN(C)CCCN1c2ccccc2CCc2ccc(Cl)cc21 [Cmpd 285, Clomipramine HCl]",++
19,"Cc1cc(C(C#N)c2ccc(Cl)cc2)c(Cl)cc1NC(=O)c1cc(I)cc(I)c1[O-].[Na+] (stereo not shown) [Cmpd 288, Closantel Sodium]",+++
20,"Clc1ccccc1C(c1ccccc1)(c1ccccc1)n1ccnc1 [Cmpd 289, Clotrimazole]",+++

row,Structure (SMILES),Compound Myofibroblast Cytotoxicity Activity
1,"O=C(c1ccc(F)c(F)c1Nc1ccc(I)cc1F)N1CC(O)([C@@H]2CCCCN2)C1 [Cmpd 290, Cobimetinib]",++++
2,"C=C1C(=O)O[C@@H]2/C=C(\C)CC/C=C(\C)CC[C@@H]12 [Cmpd 292, Costunolide]",+++
3,"CN(CC(=O)O)C(=N)N.O [Cmpd 295, Creatine monohydrate]",++
4,"CC1(COc2ccc3c(c2)ncn3-c2ccc3cccc(N4CCC(N)CC4)c3n2)COC1 [Cmpd 296, Crenolanib (CP-868596)]",+++++
5,"CC=CC(=O)N(CC)c1ccccc1C [Cmpd 298, Crotamiton]",++
6,"CN(C)c1ccc(C(=C2C=CC(=[N+](C)C)C=C2)c2ccc(N(C)C)cc2)cc1 [Cmpd 299, Crystal Violet]",+++
7,"CC1CC(OC(=O)C(O)c2ccccc2)CC(C)(C)C1 (stereo not shown) [Cmpd 301, Cyclandelate]",+++
8,"Nc1cc[nH]c(=O)n1 [Cmpd 304, Cytosine]",++
9,"O=C(CO)[C@@H](O)[C@H](O)[C@H](O)CO [Cmpd 305, D-(−)-Fructose]",++
10,"OC[C@H]1O[C@H](OC[C@H]2O[C@H](O[C@]3(CO)O[C@H](CO)[C@@H](O)[C@@H]3O)[C@H](O)[C@@H](O)[C@@H]2O)[C@H](O)[C@@H](O)[C@H]1O [Cmpd 308, D-(+)-Raffinose (hydrate)]",++
11,"CC(C)(C)c1nc(-c2cccc(NS(=O)(=O)c3c(F)cccc3F)c2F)c(-c2ccnc(N)n2)s1.CS(=O)(=O)O [Cmpd 311, Dabrafenib Mesylate (GSK-2118436)]",++
12,"COc1cc2ncnc(Nc3ccc(F)c(Cl)c3)c2cc1NC(=O)/C=C/CN1CCCCC1 [Cmpd 313, Dacomitinib (PF299804, PF299)]",+++
13,"O=C1CN(/N=C/c2ccc(-c3ccc([N+](=O)[O-])cc3)o2)C(O)=N1 [Cmpd 320, Dantrolene, sodium salt]",++++
14,"CCOc1ccc(Cc2cc([C@@H]3O[C@H](CO)[C@@H](O)[C@H](O)[C@H]3O)ccc2Cl)cc1.C[C@H](O)CO.O [Cmpd 321, Dapagliflozin ((2S)-1,2-propanediol,hydrate)]",++
15,"CN(C)[C@@H](CCOc1cccc2ccccc12)c1ccccc1 [Cmpd 322, Dapoxetine HCl]",++
16,"Cc1nc(Nc2ncc(C(=O)Nc3c(C)cccc3Cl)s2)cc(N2CCN(CCO)CC2)n1 [Cmpd 326, Dasatinib (BMS-354825)]",+++
17,"Cc1nc(Nc2ncc(C(=O)Nc3c(C)cccc3Cl)s2)cc(N2CCN(CCO)CC2)n1 [Cmpd 327, Dasatinib hydrochloride]",+++
18,"Cc1nc(Nc2ncc(C(=O)Nc3c(C)cccc3Cl)s2)cc(N2CCN(CCO)CC2)n1.O [Cmpd 328, Dasatinib Monohydrate]",+++
